How the values were obtained:
[1] = system: HEK-293 (human embryonic kidney cells); assay: MTT cell viability assay, HEK-293; assay type: cell-based; conditions: HEK293, 48 h, 2 days incubation, non-tumor cell line, average ±SD of three experiments
Description: (§1) The effects of triazole derivatives 1–26 on the cell viability were determined by MTT assay, and the IC50 values were determined toward the human tumor cell lines HT-29 (colon adenocarcinoma), A-549 (lung adenocarcinoma), and MCF-7 (breast adenocarcinoma), as well as toward the non-tumor cell line HEK-293 (human embryonic kidney cells).
(§2) In 96-well plates, 3 × 10^3 (A549 and HEK-293) or 5 × 10^3 (HT-29, MCF-7) cells per well were incubated with serial dilutions of the tested compounds in a total volume of 100 μL of their growth media. The 3-(4,5-dimethylthiazol-2-yl)-2,5-diphenyltetrazolium bromide (MTT; Sigma Chemical Co.) dye reduction assay in 96-well microplates was used. After 2 days of incubation (37 °C, 5% CO2 in a humid atmosphere), 10 μL of MTT (5 mg/mL in phosphate-buffered saline, PBS) was added to each well, and the plate was incubated for a further 3 h (37 °C). After that, the supernatant was discarded and replaced by 100 µL of DMSO to dissolve formazan crystals. The absorbance was then read at 550 nm by spectro-photometry. For all concentrations of compound, cell viability was expressed as the percentage of the ratio between the mean absorbance of treated cells and the mean absorbance of untreated cells. Three independent experiments were performed, and the IC50 values (i.e., concentration half inhibiting cell proliferation) were graphically determined by using GraphPad Prism 4 software (2019).

total PD-L1 (tPD-L1) = target: T1, total PD-L1 (tPD-L1) (Homo sapiens, UniProt Q9NZQ7); assay: Total PD-L1 relative quantification by flow cytometry; assay type: cell-based; conditions: 24 h, 100 or 10 μM (Table 7), relative to DMSO control
T1 construct: endogenous in cells; host or cells: HT-29, A-549, MCF-7
T1 sequence (Q9NZQ7 19-290): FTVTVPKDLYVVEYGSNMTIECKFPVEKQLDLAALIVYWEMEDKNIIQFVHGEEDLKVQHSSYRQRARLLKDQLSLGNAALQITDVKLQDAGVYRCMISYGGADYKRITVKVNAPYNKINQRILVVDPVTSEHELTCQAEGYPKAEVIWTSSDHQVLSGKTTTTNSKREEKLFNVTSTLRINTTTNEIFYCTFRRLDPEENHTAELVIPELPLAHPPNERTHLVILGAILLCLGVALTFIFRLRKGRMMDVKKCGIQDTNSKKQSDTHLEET
Description: (§3) The study was carried out again on HT-29, A-549, and MCF-7 cell lines by flow cytometry after 24 h of treatment with the corresponding compounds. The presence of the targets in the whole cell were relatively determined by using DMSO-treated cells as a negative control and BMS-8 as a positive one for PD-L1 (Table 3).
(§4) To study the effect of the compounds on every biological target in cancer cell lines the compounds were used at a 100 or 10 μM dose, depending on their IC50 and the treated cell line.
(§5) For the assay, 10^5 cells per well were incubated for 24 h with the corresponding dose of the tested compound in a total volume of 500 μL of their growth media.
(§6) For the detection of total PD-L1, VEGFR-2, and c-Myc, the procedure was the same as for membrane targets, but after fixation, a treatment with 0,5% in PBS TritonTM X-100 was performed. The antibodies used for PD-L1 and VEGFR-2 were the ones previously described, and for the detection of c-Myc, it was FITC Rabbit monoclonal anti-c-Myc (ab223913).

Jurkat T cells = assay: Co-culture HT-29 + PD-1 Jurkat T cells: living Jurkat cells; assay type: cell-based; conditions: 100 μM, 24 h; related to non-treated samples
Description: (§7) Cellular PD-1/PD-L1 blocking activity was studied in a co-culture system with PD-1 Jurkat T cells stimulated by interferon γ and PD-L1-expressing cancer cells. Thereby, we selected chloro derivatives 21–23 to study the proliferation of cancer cells co-cultured in the presence of PD-1 expressing Jurkat T cells in order to evaluate whether the observed PD-L1 inhibition is translated to the blockage of PD-1/PD-L1 system. […] Thus, tumor cells HT-29 were treated for 24 h with the selected compounds at 100 μM in the presence of Jurkat T cells and then living cells were counted by using cytometry and a Neubauer chamber.

[2] = system: HT-29 (colon adenocarcinoma); assay: MTT cell viability assay, HT-29; assay type: cell-based; conditions: Homo sapiens, HT-29, 48 h, 2 days incubation, average ±SD of three experiments
Description: as §1, §2

membrane PD-L1 (mPD-L1) = target: T2, membrane PD-L1 (mPD-L1) (Homo sapiens, UniProt Q9NZQ7); assay: Membrane PD-L1 relative quantification by flow cytometry; assay type: cell-based; conditions: 24 h, 100 or 10 μM (Table 7), percentage referred to DMSO control
T2 construct: endogenous in cells; host or cells: HT-29, A-549, MCF-7
T2 sequence (Q9NZQ7 19-290): as above
Description: Based on antiproliferative activity of synthetized derivatives, we decided to study the effect of the amino derivatives 14–26 on the expression of both membrane targets PD-L1 and VEGFR-2 (mPD-L1 and mVEGFR-2). The evaluation was performed on three cancer cell lines (HT-29, A-549, and MCF-7) by flow cytometry after 24 h of treatment with the corresponding compounds. Compounds were used at a 100 or 10 μM concentration depending on their IC50 value (see Table 1 in Materials and Methods section). The presence of both targets in the membrane was relatively determined by using DMSO-treated cells as a negative control.
as §4, §5
To detect membrane PD-L1 and VEGFR-2, after the cell treatments, they were collected, fixed with 4% in PBS paraformaldehyde, and stained with FITC Mouse monoclonal Anti-Human VEGFR-2 (ab184903) and Alexa Fluor® 647 Rabbit monoclonal Anti-PD-L1 (ab215251).

[3] = system: A-549 (lung adenocarcinoma); assay: MTT cell viability assay, A-549; assay type: cell-based; conditions: Homo sapiens, A549, 48 h, 2 days incubation, average ±SD of three experiments
Description: as §1, §2

[4] = system: HT-29 cells co-cultured with Jurkat T cells; assay: Co-culture HT-29 + PD-1 Jurkat T cells: living HT-29 cells; assay type: cell-based, human; conditions: 100 μM, 24 h; related to non-treated samples
Description: as §7

c-Myc = c-Myc relative quantification by flow cytometry; assay type: cell-based, human; conditions: for c-Myc relative detection, A-549 / c-Myc relative detection, HT-29 / c-Myc relative detection, MCF-7: 24 h, 100 or 10 μM (Table 7), relative to DMSO control
Description: as §3, §4, §5, §6

PD-L1 = target: T3, PD-L1 (Homo sapiens, UniProt Q9NZQ7); assay: Protein thermal shift (PTS) assay; assay type: binding
T3 construct: purchased ab167713
T3 sequence (Q9NZQ7 19-290): as above
Text: This assay measures the melting point (Tm) of the target protein which is a proxy of its stability that can be altered by the binding of a ligand. A change in the melting point relative to the unliganded form implies that a ligand has bound itself to the targeted protein. According to the fundamentals of this technique, an increase in Tm means that the binding of the ligand leads to a stabilization of the target protein, while a decrease in Tm is probably due to the fact that the binding between the ligand and its target leads to a destabilization of the protein. In this case, the tested compounds were able to change the PD-L1 melting temperature.
PTS assay was performed by following the instructions indicated in Protein Thermal ShiftTM Dye Kit (Applied Biosystems reference 4461146), using 2 μL of a 0.1 mg/mL of an aqueous solution of PD-L1 (reference ab167713) and 1.5 μL of a 0.1 mg/mL aqueous solution of the corresponding product. The melting curves were registered by a StepOneTM Real-Time PCR System.

[5] = system: MCF-7 (breast adenocarcinoma); assay: MTT cell viability assay, MCF-7; assay type: cell-based; conditions: Homo sapiens, MCF7, 48 h, 2 days incubation, average ±SD of three experiments
Description: as §1, §2

[6] = target: T4, membrane VEGFR-2 (mVEGFR-2) (Homo sapiens, UniProt P35968); assay: Membrane VEGFR-2 relative quantification by flow cytometry; assay type: cell-based; conditions: 24 h, 100 or 10 μM (Table 7), sorafenib 10 μM, percentage referred to DMSO control
T4 construct: endogenous in cells; host or cells: HT-29, A-549, MCF-7
T4 sequence (P35968 20-1356): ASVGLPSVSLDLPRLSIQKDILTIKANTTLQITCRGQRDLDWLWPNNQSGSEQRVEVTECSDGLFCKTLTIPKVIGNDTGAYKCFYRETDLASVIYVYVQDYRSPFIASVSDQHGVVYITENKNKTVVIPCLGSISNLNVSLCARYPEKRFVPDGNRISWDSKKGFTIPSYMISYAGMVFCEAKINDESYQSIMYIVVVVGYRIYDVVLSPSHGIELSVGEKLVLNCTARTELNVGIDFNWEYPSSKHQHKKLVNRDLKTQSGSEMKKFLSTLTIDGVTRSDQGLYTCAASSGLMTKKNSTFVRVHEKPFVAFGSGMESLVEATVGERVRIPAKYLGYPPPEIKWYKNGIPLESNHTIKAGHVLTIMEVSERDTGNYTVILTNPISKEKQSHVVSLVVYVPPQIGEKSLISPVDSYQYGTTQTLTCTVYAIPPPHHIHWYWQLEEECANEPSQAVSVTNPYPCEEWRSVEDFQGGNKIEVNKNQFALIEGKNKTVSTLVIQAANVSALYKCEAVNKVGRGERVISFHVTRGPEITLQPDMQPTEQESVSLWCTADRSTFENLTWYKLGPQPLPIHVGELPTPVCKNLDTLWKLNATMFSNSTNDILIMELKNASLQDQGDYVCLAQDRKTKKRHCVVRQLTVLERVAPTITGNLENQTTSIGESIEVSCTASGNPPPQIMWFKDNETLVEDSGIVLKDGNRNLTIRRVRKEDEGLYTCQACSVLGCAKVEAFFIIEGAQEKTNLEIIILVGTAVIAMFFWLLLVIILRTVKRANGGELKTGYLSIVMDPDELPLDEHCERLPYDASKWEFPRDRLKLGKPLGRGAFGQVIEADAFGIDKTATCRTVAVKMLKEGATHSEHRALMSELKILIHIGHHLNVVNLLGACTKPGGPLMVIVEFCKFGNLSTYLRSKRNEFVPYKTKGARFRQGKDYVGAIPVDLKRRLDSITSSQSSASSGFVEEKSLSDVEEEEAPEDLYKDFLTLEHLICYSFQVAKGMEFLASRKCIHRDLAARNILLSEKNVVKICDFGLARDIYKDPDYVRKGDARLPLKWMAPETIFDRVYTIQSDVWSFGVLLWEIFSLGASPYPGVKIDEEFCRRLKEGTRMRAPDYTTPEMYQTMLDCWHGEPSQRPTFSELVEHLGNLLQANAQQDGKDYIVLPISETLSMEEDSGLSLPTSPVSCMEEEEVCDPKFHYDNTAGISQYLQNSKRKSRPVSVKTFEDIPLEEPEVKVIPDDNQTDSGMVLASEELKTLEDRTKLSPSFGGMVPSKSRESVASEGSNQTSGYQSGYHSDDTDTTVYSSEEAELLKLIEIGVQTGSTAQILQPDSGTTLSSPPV
Description: The presence of both targets in the membrane was relatively determined by using DMSO-treated cells as a negative control.
as §5

SMILES | IC50 [1] | tPD-L1 relative detection, A-549 (total PD-L1 (tPD-L1)) | tPD-L1 relative detection, HT-29 (total PD-L1 (tPD-L1)) | tPD-L1 relative detection, MCF-7 (total PD-L1 (tPD-L1)) | IC50 [2] | mPD-L1 relative detection, A-549 (membrane PD-L1 (mPD-L1)) | mPD-L1 relative detection, HT-29 (membrane PD-L1 (mPD-L1)) | mPD-L1 relative detection, MCF-7 (membrane PD-L1 (mPD-L1)) | IC50 [3] | c-Myc relative detection, A-549 (c-Myc; A-549) | c-Myc relative detection, HT-29 (c-Myc) | c-Myc relative detection, MCF-7 (c-Myc) | IC50 [5] | further results
Cc1c(COc2ccc(CN3CCCCC3C(=O)O)cc2Br)cccc1-c1ccccc1 (centres unmarked) [BMS-8, reference compound] | 60 ± 10 µM | 66 ± 8% | 62 ± 3% | 68 ± 5% | 19 ± 2 µM | 99 ± 10% | 95 ± 12% | 90 ± 8% | 6 ± 1 µM | 135 ± 15% | 99 ± 7% | 60 ± 7% | 20 ± 3 µM | Relative number of living Jurkat cells in co-culture with HT-29 (Jurkat T cells): 110 ± 4%; Relative number of living HT-29 cells in co-culture with Jurkat T [4]: 51 ± 8%; PTS Tm (PD-L1; PD-L1 melting temperature, DMSO 34 °C): 38 °C; PTS ΔTm (PD-L1; shift of PD-L1 melting temperature vs DMSO): +4 °C
Nc1ccc(-c2cn(Cc3ccc(Br)cc3)nn2)cc1 [Compound 26, 4-(1-(4-bromobenzyl)-1H-1,2,3-triazol-4-yl)aniline] | > 100 µM | 80 ± 12% | 51 ± 2% | >100% | 14 ± 6 µM | 76 ± 4% | 94 ± 15% | 84 ± 23% | 8 ± 2 µM | 82 ± 4% | >100% | 64 ± 6% | 8 ± 1 µM | mVEGFR-2 relative detection, A-549 ([6]; A-549): >100%; mVEGFR-2 relative detection, HT-29 ([6]; HT-29): 85 ± 7%; mVEGFR-2 relative detection, MCF-7 ([6]; MCF-7): >100%; melting point: 169 to 170 °C; Inhibition of c-Myc, A-549 (c-Myc; A-549, compared to non-treated cells): 20%

— PMC9266368, “Synthesis and Biological Evaluation of Small Molecules as Potential Anticancer Multitarget Agents” (International Journal of Molecular Sciences, 2022)
